Source: US11802107B2, “Compounds and methods of use” (Signum Biosciences, Inc., priority 2017, dated 2023)
pIC50: −log10 of the molar value. ≈ marks a conversion by molar mass, not a printed value.

Columns and labels:
Balb/C mice = test: Oxazolone-induced delayed-type hypersensitivity (DTH) in vivo model; conditions: Mus musculus, topical to ears @ 3% w/v, 24 hours, read-out: Edema % inhibition
Description: Inbred male Balb/C mice were purchased from Hilltop Lab Animals (Scottdale, PA) and were used between 8 and 10 weeks of age. Mice backs were shaved and 100 μl of 3% v/v Oxazolone (Sigma Aldrich, Cat No. E0753) in acetone/olive oil (4:1) was applied to dorsal skin for sensitization. On Day 7, ears were challenged with 0.5% v/v Oxazolone and 30 minutes after challenge, test materials at 3% w/v were applied to ears (10 μl applied both to the dorsal and ventral surfaces of the mouse ear using a solvent pipette) and 24 hours later, skin thickness (edema) was measured. A 6-mm punch biopsy was obtained from each ear, snap frozen in liquid nitrogen. Ear skin biopsy punches were pulverized using FastPrep®-24 Biopulverizer (MP Biomedical, CatNo. 116004500) and Lysing Matrix A tubes (CatNo. 16910050). Protein extracts were obtained using 500 μL/tissue of cold T-PER buffer (ThermoFisher, CatNo. 78510) with Protease inhibitors (Sigma-Aldich, CatNo. 58820-20TAB). Soluble protein fractions were used to measure cytokine levels (IL-4) using ELISA kit (BD Biosciences® #555232). Results were represented as percent of inhibition relative to unsensitized and sensitized-only treated animals. Vehicle for presently disclosed compounds was 60:40 H2O:EtOH and 1:1 Acetone:EtOH for AN2718. (n=5-15 animals per treatment group).
Compound C was further analyzed at various dosages against 0.4 mg/ear of […] by the above protocol, data representing the average±S.E. of cumulative data from three independent experiments (n=12-15 mice per group) is shown below: […]

IL-4 = test: T-cell receptor (anti-CD3/CD28)-induced IL-4 on PBMCs; type: cell-based; conditions: Homo sapiens, PBMC, anti-CD3/CD28 beads, 24 hours, ELISA, read-out: TCR-PBMCs IL-4 Protein IC50
Description: (§1) Cryopreserved human Peripheral Blood Mononuclear cells (PBMCs) from healthy adult donors were obtained from Zen Bio, Inc (Cat No. SER-PBMC-F). Cells were cultured in 96-well plates with lymphocyte media (Cat No. LYMPH-1) and were pre-treated with test materials (≤100 μM) for 2 hours and later co-treated with test materials and anti-CD3/CD28 beads (Thermo-Fisher; Cat No. 11131D) at 1:0.4 PBMC:bead ratio for 24 hours at 37° C. and 5% CO2. After incubation, cell media supernatants were harvested and used to measure cytokine levels (IL-4, IL-5, IL-10) using ELISA kits (BD Biosciences® #555194, #555157; R&D Systems® #DY317). Results were represented as percent of inhibition relative to untreated and anti-CD3/CD28 beads-only treated cells. IC50 values were determined by non-linear regression analysis using the four-parameter logistic equation.

IL-10 = test: T-cell receptor (anti-CD3/CD28)-induced IL-10 on PBMCs; type: cell-based; conditions: Homo sapiens, PBMC, anti-CD3/CD28 beads, 24 hours, ELISA, read-out: TCR-PBMCs IL-10 Protein IC50
Description: as §1

P. acnes (ATCC 6919) [1] = test: Minimal inhibitory concentration (MIC) against P. acnes; type: cell-based, Propionibacterium acnes; conditions: Cutibacterium acnes, ATCC6919, 72 h, P. acnes ATCC 6919, 10^6 CFU/mL, read-out: MIC
Description: To determine minimal inhibitory concentration (MIC), reagents were dissolved in vehicle (5% v/v) and then added to bacteria suspension. P. acnes (ATCC® 6919TM) at 10^6 CFU/mL was incubated with test materials at the concentrations of two-fold serial dilution (0.25-500 μg/mL) and incubated for 72 hours (P. acnes).

IL-5 = test: T-cell receptor (anti-CD3/CD28)-induced IL-5 on PBMCs; type: cell-based; conditions: Homo sapiens, PBMC, anti-CD3/CD28 beads, 24 hours, ELISA, read-out: TCR-PBMCs IL-5 Protein IC50
Description: as §1

IL-8 [2] = test: Peptidoglycan (PGN)-induced IL-8 on NHEKs; type: cell-based, human; conditions: Homo sapiens; NHEK, PGN 10 μg/mL, 24 hours, ELISA; read-out: PGN-NHEK 1L-8 Protein IC50
Description: (§2) Normal human epidermal keratinocytes (NHEKs) from neonatal donors were obtained from Thermo-Fisher (Cat No. C-001-5C). Cells were cultured in 96-well plates for 24 hours with EpiLife media (Cat No. MEPI500CA) supplemented with keratinocytes growth supplement (Cat No. S0015). On Day 2, media was removed and replaced with supplement-depleted medium for 24 hours. On Day 3, media was removed and cells were pre-treated with test materials (≤1 μM) for 2 hours and later co-treated with test materials and PGN (Sigma Aldrich, Cat No. 77140) at 10 μg/mL and incubated for 24 hours at 37° C. and 5% CO2. PGN is a TLR-2 agonist. After incubation, cell media supernatants were harvested and used to measure pro-inflammatory cytokine levels (IL-8) using ELISA kit (BD Biosciences® #555244). Results were represented as percent of inhibition relative to untreated and PGN-only treated cells. IC50 values were determined by non-linear regression analysis using the four-parameter logistic equation.

[3] = tested on: P. acnes (ATCC 6919) biofilms; test: P. acnes biofilm eradication (MBEC), crystal violet; type: cell-based, Propionibacterium acnes; conditions: 24 hours, ≥80% eradication vs vehicle
Description: P. acnes (ATCC® 6919™) was cultured as described above. Bacteria biofilms were established by seeding P. acnes cultures in 96-well plates and incubating for 24 hours without agitation. Later, biofilms were incubated with test materials for 24 hours. Remaining biofilms were washed and stained with crystal violet. […] The absorbance was measured at 595 nm in a microplate reader. […] Results from disk diffusion susceptibility testing (Kirby-Bauer Method) after 72 hours incubation were also obtained.

HCAP18 = test: NHEK antimicrobial peptide gene expression, hCAP18; type: cell-based, human; conditions: 10 μM, 24 hours, qPCR, normalized to GAPDH
Description: (§3) Normal human epidermal keratinocytes (NHEKs) from neonatal donors were obtained from Thermo-Fisher (Cat No. C-001-5C). Cells were cultured in 6-well plates for 24 hours before treatments with EpiLife media (Cat No. MEPI500CA) supplemented with keratinocytes growth supplement (Cat No. 50015). On Day 2, media was removed and incubated with test materials (10 μM) for 24 hours at 37° C. and 5% CO2. On Day 3, total RNA was extracted from cells using the RNAqueous® kit (Ambion®; Cat No. 1912) and cDNA was obtained using the High Capacity RNA-to-cDNA kit (Applied Biosystems®; Cat No. 4387406). Quantitative PCR (qPCR) was performed using the TaqMan® Fast Advanced Master Mix (Applied Biosystems®; Cat No. 4444556) and specific TaqMan®-probes human gene primers DEFB4B (hBD2), DEFB103 (hBD3), HCAP18 and GAPDH to calculate the relative gene fold expression change per treatment. Gene expression analysis was performed using the comparative Ct method (also known as the 2-[delta][delta]Ct) approach by comparing the Ct values of the treated samples with the untreated samples and normalized to GAPDH gene expression as endogenous housekeeping gene. Results were represented as fold-expression/untreated cells.

DEFB4B (hBD2) = test: NHEK antimicrobial peptide gene expression, hBD2; type: cell-based, human; conditions: 10 μM, 24 hours, qPCR, normalized to GAPDH
Description: as §3

DEFB103 (hBD3) = test: NHEK antimicrobial peptide gene expression, hBD3; type: cell-based, human; conditions: 10 μM, 24 hours, qPCR, normalized to GAPDH
Description: as §3

IL-8 [4] = test: P. acnes-induced IL-8 protein on human PBMCs (ELISA); type: cell-based; conditions: PBMCs + live P. acnes 1:1, test material 30 PM, 24 hours
Description: (§4) Cryopreserved human Peripheral Blood Mononuclear cells (PBMCs) from healthy adult donors were obtained from Zen Bio, Inc (Cat No. SER-PBMC-F). Cells were cultured in 12-well plates with lymphocyte media (Cat No. LYMPH-1) and incubated with test materials ([…]) and live P. acnes (ATCC® 6919TM) at 1:1 PBMC: P. acnes bacteria ratio for 24 hours at 37° C. and 5% CO2. After incubation, cell media supernatants were harvested and used to measure pro-inflammatory cytokine levels (IL-8, TNF-α, IL-1b, IL-17) using ELISA kits (BD Biosciences® #557966, #555212, #555244; R&D Systems® #DY317). Total RNA was extracted from cells using the RNAqueous® kit (Ambion®; Cat No. 1912) and cDNA was obtained using the High Capacity RNA-to-cDNA kit (Applied Biosystems®; Cat No. 4387406). Quantitative PCR (qPCR) was performed using the TaqMan® Fast Advanced Master Mix (Applied Biosystems®; Cat No. 4444556) and specific TaqMan®-probes human gene primers CXCL8 (IL-8), IL1B (IL-1b), TNF (TNF-α), IL17A (IL-17A) and GAPDH to calculate the relative gene fold expression change per treatment. Gene expression analysis was performed using the comparative Ct method (also known as the 2-[delta][delta]Ct) approach by comparing the Ct values of P. acnes-only treated cells with the untreated samples and normalized to GAPDH gene expression as endogenous housekeeping gene.

TNF-α = test: P. acnes-induced TNF-α protein on human PBMCs (ELISA); type: cell-based; conditions: PBMCs + live P. acnes 1:1, test material 30 PM, 24 hours
Description: as §4

IL-1b = test: P. acnes-induced IL-1b protein on human PBMCs (ELISA); type: cell-based; conditions: PBMC, PBMCs + live P. acnes 1:1, test material 30 PM, 24 hours
Description: as §4

P. acnes (ATCC 6919) [5] = test: Minimal bactericidal concentration (MBC) against P. acnes; type: cell-based, Propionibacterium acnes; conditions: Cutibacterium acnes, ATCC6919; P. acnes 10^7 CFU/mL, in PBS, anaerobic conditions
IL-17 = test: P. acnes-induced IL-17 protein on human PBMCs (ELISA); type: cell-based; conditions: PBMC, PBMCs + live P. acnes 1:1, test material 30 PM, 24 hours
Description: as §4

IL1B (IL-1b) = test: P. acnes-induced IL-1b gene on human PBMCs (qPCR); type: cell-based; conditions: PBMC, PBMCs + live P. acnes 1:1, test material 30 PM, 24 hours
Description: as §4

IL-8 [6] = test: P. acnes-induced IL-8 on human NHEKs; type: cell-based; conditions: Homo sapiens; NHEK, live P. acnes 10^7 CFU, 24 hours, ELISA; read-out: P. acnes-NHEK IL-8 Protein IC50
Description: as §2, with “([…])” for “(≤1 μM)”, “live P. acnes (ATCC® 6919TM)” for “PGN (Sigma Aldrich, Cat No. 77140)”, “10^7 CFU” for “10 μg/mL and incubated”, “CO2.” for “CO2. PGN is a TLR-2 agonist.”, “kits” for “kit”, “P. acnes-only” for “PGN-only”

CXCL8 (IL-8) = test: P. acnes-induced IL-8 gene on human PBMCs (qPCR); type: cell-based; conditions: PBMC, PBMCs + live P. acnes 1:1, test material 30 PM, 24 hours
Description: as §4

TNF (TNF-α) = test: P. acnes-induced TNF-α gene on human PBMCs (qPCR); type: cell-based; conditions: PBMC, PBMCs + live P. acnes 1:1, test material 30 PM, 24 hours, read-out: TNFa-Gene % inhibition
Description: as §4

IL17A (IL-17A) = test: P. acnes-induced IL-17 gene on human PBMCs (qPCR); type: cell-based; conditions: PBMC, PBMCs + live P. acnes 1:1, test material 30 PM, 24 hours
Description: as §4

Compound	pIC50 (IL-4)	pIC50 (IL-10)	MIC (P. acnes (ATCC 6919) [1]) [µg/mL]	pIC50 (IL-5)	pIC50 (IL-8 [2])	pIC50 (IL-8 [6])	inhibition in vivo at 3 % strength (Balb/C mice) [%]	MBEC [3]	hCAP18 gene expression (HCAP18)	hBD2 gene expression (DEFB4B (hBD2))	hBD3 gene expression (DEFB103 (hBD3))	IL-8 Protein % inhibition (IL-8 [4]) [%]	TNFa-Protein % inhibition (TNF-α) [%]	inhibition at 30 pM (IL-1b) [%]	MBC (P. acnes (ATCC 6919) [5]) [µg/mL]	inhibition at 30 pM (IL-17) [%]	inhibition at 30 pM (IL1B (IL-1b)) [%]	inhibition at 30 pM (CXCL8 (IL-8)) [%]	inhibition at 30 pM (TNF (TNF-α)) [%]	inhibition at 30 pM (IL17A (IL-17A)) [%]
O=C(O)c1ccccc1O [Salicylic Acid, reference compound]	–	–	1000 (≈ 7.24 mM)	–	< 6.00	–	–	>8000 μg/mL and (>57920) μM	1.2 Fold-expression/untreated cells	1.0 Fold-expression/untreated cells	1.2 Fold-expression/untreated cells	0	0	40	2000 (≈ 14.5 mM)	0	–	–	–	–
C/C(=C\CSCC(NC(=O)c1cc(O)c(O)c(O)c1)C(=O)O)CCCC(C)CCCC(C)CCCC(C)C (stereo not drawn) [V]	–	–	> 4	–	–	8.52	5	–	–	–	–	–	–	–	> 25	–	83	46	0	0
O=C(O)CCCCCCCC(=O)O [Azelaic Acid, reference compound]	–	–	1000 (≈ 5.31 mM)	–	–	–	–	8000 μg/mL and (42503) μM	1.1 Fold-expression/untreated cells	1.8 Fold-expression/untreated cells	0.9 Fold-expression/untreated cells	43	0	66	> 2000	0	–	–	–	–

Second part, led by results:

pIC50 (IL-4)	pIC50 (IL-10)	MIC (P. acnes (ATCC 6919) [1]) [µg/mL]	pIC50 (IL-5)	pIC50 (IL-8 [2])	pIC50 (IL-8 [6])	Compound	inhibition in vivo at 3 % strength (Balb/C mice) [%]	MBEC [3]	hCAP18 gene expression (HCAP18)	hBD2 gene expression (DEFB4B (hBD2))	hBD3 gene expression (DEFB103 (hBD3))	IL-8 Protein % inhibition (IL-8 [4]) [%]	TNFa-Protein % inhibition (TNF-α) [%]	inhibition at 30 pM (IL-1b) [%]	MBC (P. acnes (ATCC 6919) [5]) [µg/mL]	inhibition at 30 pM (IL-17) [%]	inhibition at 30 pM (IL1B (IL-1b)) [%]	inhibition at 30 pM (CXCL8 (IL-8)) [%]	inhibition at 30 pM (TNF (TNF-α)) [%]	inhibition at 30 pM (IL17A (IL-17A)) [%]
< 4.00	4.00	> 250	< 4.00	–	–	C/C(=C\CSCC(NC(=O)CCCCCCCCC(=O)O)C(=O)O)CCCC(C)CCCC(C)CCCC(C)C (stereo not drawn) [D]	53	–	–	–	–	–	–	–	–	–	–	–	–	–
4.28	4.34	24 (≈ 0.0419 mM)	4.30	–	–	CSCCC(NC(C)=O)C(=O)NC(CSC/C=C(\C)CCCC(C)CCCC(C)CCCC(C)C)C(=O)O (stereo not drawn) [Compound B]	48	–	–	–	–	–	–	–	–	–	–	–	–	–
–	–	> 16	–	–	–	CCN(CC(=O)O)C(=O)NC(CSC/C=C(\C)CCCC(C)CCCC(C)CCCC(C)C)C(=O)O (stereo not drawn) [I]	36	–	–	–	–	–	–	–	–	–	86	52	0	7
